Laboratory results as given in patent publication US11471428B2, “Method and pharmaceutical composition for treating depression” (ZHEJIANG UNIVERSITY, priority 2017, dated 2022).
Counter-ions that a name gives are not always drawn.

Key:
[1] = not told; cited from earlier work
[2] = tested on: spontaneously bursting LHb neurons; test: Spontaneous bursts of LHb neurons in brain slices, bath application; format: cell-based
[3] = tested on: cLH rats; test: Sucrose preference test (SPT) after local bilateral infusion in LHb of cLH rats; format: in vivo, rat; settings: 1 ul each side
[4] = tested on: C56BL/6 mice; test: Mouse forced swim test after i.p. administration; format: in vivo; settings: 1 hour after administration
[5] = tested on: silent LHb neurons; test: NMDA perfusion-induced bursting in originally silent LHb neurons; format: cell-based
[6] = tested on: LHb neurons; test: Whole cell patch recording of spontaneous activity of LHb neurons, cLH rat model; format: cell-based; settings: LHb slices of cLH rats
[7] = tested on: LHb neurons; test: Whole cell patch recording of spontaneous activity of LHb neurons, CRS mouse model; format: cell-based; settings: LHb slices of CRS mice
[8] = tested on: cLH rats; test: Forced swim test (FST) after local bilateral infusion in LHb of cLH rats; format: in vivo, rat; settings: 1 ul each side
[9] = tested on: LHb neurons; test: In vivo multi-tetrode recording in the LHb of CRS mice; parameters: species or system mouse
[10] = target: AMPA receptor (AMPAR); settings: cited from earlier work
[11] = tested on: NMDAR; settings: cited from earlier work
[12] = tested on: NMDARs; format: cell-based; settings: NBQX, picrotoxin, 0 Mg2+
[13] = tested on: lateral habenular neurons; test: Hyperpolarization-triggered rebound bursts in LHb brain slices; format: cell-based; settings: AP5 100 μM
[14] = ketamine 25 ug, 1 hr after infusion
[15] = mibefradil 10 nmol, 1 hr after infusion

Compound	blood-brain barrier permeability [1]	other results
NCC1(CC(=O)O)CCCCC1 [Gabapentin]	do not have blood-brain barrier permeability	
NC12CC3CC(CC(C3)C1)C2 [Amantadine]	capable of crossing a blood-brain barrier or show at least certain level of blood-brain barrier permeability	
CC(C)(C)CCN1C[C@@H]2C(CNC(=O)c3cc(Cl)cc(Cl)c3)[C@@H]2C1 (some centres unmarked) [ML218]	shows at least some level of blood-brain barrier permeability	
NC(CCCCCP(=O)(O)O)C(=O)O (centres unmarked) [AP7]	observed but at a low level	
CCN(c1ccccc1)c1cc(=NC)n(C)c(C)n1.Cl [ZD7288]		effect on spontaneous bursts ([2]; ZD7288 50 μM): significant but much smaller effect on bursts than mibefradil
CNC1(c2ccccc2Cl)CCCCC1=O (centres unmarked) [ketamine]	capable of crossing a blood-brain barrier or show at least certain level of blood-brain barrier permeability	anhedonia, sucrose preference test [3, 14]: sufficient to quickly rescue the depressive-like behaviors; sustained antidepressant effect in SPT ([3]; ketamine 25 ug, 14 d): sustained antidepressant effects for 14 days; effect in the forced swim test ([4]; ketamine 2.5 mg/kg i.p.): ineffective; NMDA-induced bursting activity ([5]; additional bath application of 100 μM ketamine): blocked; increase of bursting neurons in cLH rat model [6]: reversed by ketamine; increase of bursting neurons in CRS mouse model [7]: reversed by ketamine; immobility time in the FST [8, 14]: sufficient to quickly rescue the depressive-like behaviors; sustained antidepressant effect in FST ([8]; ketamine 25 ug, 14 d): sustained antidepressant effects for 14 days; LHb bursting activity in vivo ([9]; 10 mg/kg, i.p., 1 h prior to recording, CRS mice): significantly suppressed; cumulative frequency distributions of ISI ([9]; 10 mg/kg, i.p., CRS mice): significantly shifted toward control level; LHb network synchronization (STA and SFC, theta band) ([9]; 1 hr after systemic injection, 10 mg/kg, i.p., CRS mice): reversed to control level; 50% percentile of ISI ([9]; CRS mice treated with ketamine (control 143 ms, CRS 33 ms)): 121 ms
NS(=O)(=O)Cc1noc2ccccc12 [zonisamide]	shows at least some level of blood-brain barrier permeability	
CN1C(=O)OC(C)(C)C1=O [trimethadione]	shows at least some level of blood-brain barrier permeability	
O=C1NC(=O)C(c2ccccc2)(c2ccccc2)N1 [phenytoin]	shows at least some level of blood-brain barrier permeability	
CN1C(=O)CC(C)(c2ccccc2)C1=O (centres unmarked) [methsuximide]	shows at least some level of blood-brain barrier permeability	
CCCCCCC(C)(C)c1cc(O)c2c(c1)OC(C)(C)[C@H]1CC=C(CO)C[C@H]21 [HU-211]	capable of crossing a blood-brain barrier or show at least certain level of blood-brain barrier permeability	
CN[C@]12CCCC[C@H]1Cc1ccccc12 [PD-137889]	capable of crossing a blood-brain barrier or show at least certain level of blood-brain barrier permeability	
O=C(O)c1cc(=O)c2ccccc2[nH]1 [kynurenic acid]	capable of crossing a blood-brain barrier or show at least certain level of blood-brain barrier permeability	
O=C(O)[C@@H]1C[C@H](CP(=O)(O)O)CCN1 (racemic) [Selfotel]	capable of crossing a blood-brain barrier or show at least certain level of blood-brain barrier permeability	
COc1ccc2c(c1)[C@]13CCCC[C@@H]1[C@H](C2)N(C)CC3 [Dextromethorphan]	capable of crossing a blood-brain barrier or show at least certain level of blood-brain barrier permeability	
C/C=C1\[C@H]2C=C(C)C[C@]1(N)c1ccc(=O)[nH]c1C2 [Huperzine A]	capable of crossing a blood-brain barrier or show at least certain level of blood-brain barrier permeability	
N[C@@H](Cc1ccccn1)c1ccccc1 [AZD6765]	capable of crossing a blood-brain barrier or show at least certain level of blood-brain barrier permeability	
CN[C@H](CC(=O)O)C(=O)O [NMDA, N-methyl-D-aspartate]		originally silent LHb neurons induced to strong bursting activity ([5]; NMDA 20 μM, NBQX, picrotoxin, 0 Mg2+): 10 out of 13
CCc1cccc(N(C)C(N)=Nc2cccc3ccccc23)c1 [Aptiganel]	capable of crossing a blood-brain barrier or show at least certain level of blood-brain barrier permeability	
NS(=O)(=O)c1cccc2c1c([N+](=O)[O-])cc1nc(O)c(O)nc12 [NBQX]		IC50 [10]: 150 nM; spontaneous bursts ([2]; NBQX 10 μM): reduced bursts, but to a much smaller extent than NMDAR blockade
CC1(C)OC(=O)NC1=O [dimethadione]	shows at least some level of blood-brain barrier permeability	
CC12CC3CC(C)(C1)CC(N)(C3)C2 [memantine hydrochloride]	capable of crossing a blood-brain barrier or show at least certain level of blood-brain barrier permeability	
NC(CCCP(=O)(O)O)C(=O)O (centres unmarked) [AP5]	do not have blood-brain barrier permeability	hedonic behaviors in the SPT ([3]; AP5 40 nmol, 0.5 h): increased hedonic behaviors; spontaneous burst-firing ([2]; AP5 100 μM bath application): stopped burst-firing; IC50 [11]: 30 µM; isolated NMDAR-currents (NMDAR-EPSCs) [12]: abolished; probability of neuron hyperpolarization-induced burst [13]: 0.12; immobile time in the FST ([8]; AP5 40 nmol, 0.5 h): efficiently reduced the immobile time
CNCC[C@@H](Oc1ccccc1C)c1ccccc1 [Atomoxetine]	capable of crossing a blood-brain barrier or show at least certain level of blood-brain barrier permeability	
CCC1(C)CC(=O)NC1=O (centres unmarked) [ethosuximide]	shows at least some level of blood-brain barrier permeability	effect in the forced swim test ([4]; ethosuximide 100 mg/kg i.p.): ineffective
CCCC(CCC)C(=O)[O-].[Na+] [sodium valproate]	shows at least some level of blood-brain barrier permeability	
O=C(O)C1CN(C/C=C/P(=O)(O)O)CCN1 (centres unmarked) [CPPene]	capable of crossing a blood-brain barrier or show at least certain level of blood-brain barrier permeability	
COCC(=O)O[C@]1(CCN(C)CCCc2nc3ccccc3[nH]2)CCc2cc(F)ccc2[C@@H]1C(C)C [mibefradil]	has no blood-brain barrier permeability	anhedonia in the SPT [3, 15]: quickly rescued the depressive-like behaviors; immobility in the FST [8, 15]: quickly rescued the depressive-like behaviors
